Assay results reported in US20210323940A1 (OCEANS LTD., priority 2018, published 2021).
In brackets after ≈: the same amount, converted by molar mass.

Assays:
[1] = CIMA assay (tetrazolium reduction, cell viability, 72 h); type: cell-based, human; conditions: human
Description: (§1) Prepared extracts were assessed following chronic exposure conditions in which cells were seeded at 2×10^3 cells/well (96 wells-plate) and incubated with test compounds for 72 h. Each compound was evaluated over a range of concentrations (0, 10, 25, 50 or 100 μg/ml). Cell proliferation was initially assessed using a standard colorimetric indicator of metabolic activity (CIMA) assay. In this assay, tetrazole reduction was evaluated as a measure of metabolic function that evaluates mitochondrial activity to determine the extent of cell proliferation within a culture. This assay is based on the reduction of yellow tetrazolium salt to purple formazan by mitochondrial reductases enzyme in viable cells, resulting in a color change that confers a change in absorbance. Seven human cell lines were selected for primary evaluation: U373 (glioblastoma-astrocytoma), A549 (lung carcinoma), THP-1 (acute monocytic leukemia), MCF7 (mammary gland adenocarcinoma), SKOV3 (ovarian adenocarcinoma), PC3 (prostate adenocarcinoma) and CCD1079SK (fibroblast, noncancerous but proliferating) (see FIG. 2 and Table 2). Results are expressed in Table 2 as % viability (means±standard deviation of three replicates), with LD50/IC50 values in Tables 3 and 6. […] The maximum DMSO concentration was 1% at 100 μg/ml with 5% SDS used as a known toxic inducer.
(§2) Experimental: Stock solutions of the test compounds were prepared in dimethylsulfoxide (DMSO) at 10 mg/ml and stored at −20° C. until used. This preparation ensures that the DMSO content delivered to cells in culture never exceeds 1%. Appropriate cells number, based on previous assays, were seeded in 96 well plate and incubated with test compounds (up to 8 log concentrations, 0 to 50 or 100 μg/ml) for 72 h. Cell proliferation was initially assessed using a standard colorimetric indicator of metabolic activity (CIMA) assay. In this assay, reduction of yellow tetrazolium salt (MTT) to purple formazan by mitochondrial reductases enzymes in viable cells were measured as change in absorbance (λ=500-600).
(§3) Seven human cell lines were evaluated: U373 (glioblastoma-astrocytoma), A549 (lung carcinoma), PC3 (prostate adenocarcinoma), THP1 (acute monocytic leukemia), MDA-MB-231 (mammary gland adenocarcinoma), SKOV3 (ovarian adenocarcinoma) and CCD1079Sk (normal skin fibroblast) cells.

[2] = tested on: A549 (lung carcinoma); assay: as above; type: cell-based, human; conditions: Homo sapiens
Description: as §1, §2, §3

[3] = tested on: CCD1079SK (fibroblast, noncancerous but proliferating); assay: as above; type: cell-based, human; conditions: Homo sapiens, Fibroblast; 1079SK; 72 h
Description: as §1, §2, §3

[4] = tested on: PC3 (prostate adenocarcinoma); assay: as above; type: cell-based, human; conditions: Homo sapiens
Description: as §1, §2, §3

[5] = tested on: SKOV3 (ovarian adenocarcinoma); assay: as above; type: cell-based, human; conditions: Homo sapiens
Description: as §1, §2, §3

[6] = tested on: THP-1 (acute monocytic leukemia); assay: as above; type: cell-based, human; conditions: Homo sapiens
Description: as §1, §2, §3

[7] = tested on: U373 (glioblastoma-astrocytoma); assay: as above; type: cell-based, human; conditions: Homo sapiens, U373 MG
Description: as §1, §2, §3

[8] = tested on: tumour cell lines; assay: CIMA assay, overall statements on the panel of human cell lines; type: cell-based; conditions: synthetic compound, 72 h, listed as Synthesized compound II
Description: Prepared extracts were assessed following chronic exposure conditions in which cells were seeded at 2×10^3 cells/well (96 wells-plate) and incubated with test compounds for 72 h. Each compound was evaluated over a range of concentrations (0, 10, 25, 50 or 100 μg/ml). Cell proliferation was initially assessed using a standard colorimetric indicator of metabolic activity (CIMA) assay. In this assay, tetrazole reduction was evaluated as a measure of metabolic function that evaluates mitochondrial activity to determine the extent of cell proliferation within a culture. This assay is based on the reduction of yellow tetrazolium salt to purple formazan by mitochondrial reductases enzyme in viable cells, resulting in a color change that confers a change in absorbance. […]
Crude extract #1 was fractionated into five fractions by C-18 SPE column separation using 15 ml each of 5% methanol (fraction 1), 25% methanol (fraction 2), 50% methanol (fraction 3), 100% methanol (fraction 4) and methanol:dichloromethane (1:1) (fraction 5). Extracts were fractionated and the resulting fractions were evaluated using CIMA assay. […]
Experimental: Stock solutions of the test compounds were prepared in dimethylsulfoxide (DMSO) at 10 mg/ml and stored at −20° C. until used. […] Cell proliferation was initially assessed using a standard colorimetric indicator of metabolic activity (CIMA) assay. […]

[9] = tested on: MDA-MB-231 breast cancer cells; assay: Murine flank tumour model, synthesized compound (II) (DHODO): tumour volume; type: in vivo, nude mice (strain J:NU)
Description: Test material was dissolved in DMSO and the final injectable solution was prepared using PBS. Homozygous outbred nude mice (strain J:NU, 6-weeks old, female) suitable as immune-deficient tumour transplant hosts will be procured from a commercial supplier (Jackson Labs, Maine, USA) and acclimatized in a barrier facility (AVC) for one week. Mice were weighed and random groups of ten mice were established based on the tumour volume and body weight as follows: To establish the tumours, MDA-MB-231 breast cancer cells (2.5 million cells in 100 pl 50:50 matrigel:DMEM) were injected subcutaneously into both right and left flanks. Tumours were evaluated over a 2-week period until sufficient volume growth (approximately 20 mm3) for subsequent analysis had occurred. During this period, body weights were measured twice weekly. Mice with established tumours were treated every second day by intraperitoneal injections of test compounds over a 4-week time course. From each group a minimum of 15 tumours were selected for analysis. Tumours were measured weekly using external calipers and volumes established using the modified ellipsoidal formula: tumour volume=0.5 (length×width2). In addition, body weights and general animal health were assessed twice weekly during the treatment period. At study termination, mice were sacrificed and tumours excised from the flank was weighed. To evaluate tumour metastasis, an explorative necropsy was conducted in each mouse and the presence and frequency of additional tumours at sites distal to the flank were assessed.

[10] = A549, read-out: average cell viability
[11] = read-out: average cell viability
[12] = SK-OV-3, read-out: average cell viability
[13] = THP-1, read-out: average cell viability

CCCCC[C@H](O)[C@H](O)/C=C/[C@@H]1CCCCCCCC(=O)O1 [compound (II), 12R, 13S-Dihydroxy-10-Octadecen-9S-olide]
viability at 72 h, 1 ug/mL [1]: 91% | viability at 72 h, 10 ug/mL [1]: 84% | viability at 72 h, 50 ug/mL [1]: 90% | viability at 72 h, 100 ug/mL [1]: 17% | viability at 1 µg/mL [2, 10]: 95% | viability at 10 µg/mL [2, 10]: 93% | viability at 50 µg/mL [2, 10]: 92% | viability at 100 µg/mL [2, 10]: 61% | IC50 ([2]; A549, 72 h): 22 µg/mL (≈ 70.5 µM) | IC50 [3]: 34.9 µg/mL (≈ 112 µM) | viability at 1 µg/mL [4, 11]: 100% | viability at 10 µg/mL [4, 11]: 93% | viability at 50 µg/mL [4, 11]: 97% | viability at 100 µg/mL [4, 11]: 19% | IC50 ([4]; PC3, 72 h): 37.7 µg/mL (≈ 121 µM) | viability at 1 µg/mL [5, 12]: 97% | viability at 10 µg/mL [5, 12]: 97% | viability at 50 µg/mL [5, 12]: 94% | viability at 100 µg/mL [5, 12]: 85% | IC50 ([5]; SK-OV-3, SKOV3, 72 h): 67.7 µg/mL (≈ 217 µM) | viability at 1 µg/mL [6, 13]: 96% | viability at 10 µg/mL [6, 13]: 84% | viability at 50 µg/mL [6, 13]: 68% | viability at 100 µg/mL [6, 13]: 44% | IC50 ([6]; THP-1, 72 h): 25.9 µg/mL (≈ 82.8 µM) | viability at 1 µg/mL [7, 11]: 90% | viability at 10 µg/mL [7, 11]: 85% | viability at 50 µg/mL [7, 11]: 68% | viability at 100 µg/mL [7, 11]: 3% | IC50 ([7]; U373, 72 h): 39.1 µg/mL (≈ 125 µM) | antiproliferative activity in tumour cell lines [8]: significantly reduced tumour cell viability and growth in vitro | Tumour weight at necropsy ([9]; 1 mg): 0.0815 g | Tumour size expressed in volume ([9]; 1 mg/kg, Week 0): 40.59 mm^3 | Tumour size expressed in volume ([9]; 1 mg/kg, Week 1): 36.34 mm^3 | Tumour size expressed in volume ([9]; 1 mg/kg, Week 2): 65.15 mm^3 | Tumour size expressed in volume ([9]; 1 mg/kg, Week 3): 82.66 mm^3 | Tumour size expressed in volume ([9]; 1 mg/kg, Week 4): 110.23 mm^3 | Tumour weight at necropsy ([9]; 5 mg): 0.0380 g | tumour growth ([9]; 5 mg/kg): inhibited tumour growth | Tumour volumes reduced by ([9]; 5 mg/kg, intraperitoneal every second day, 4 weeks): 50% | Tumour size expressed in volume ([9]; 5 mg/kg, Week 0): 44.24 mm^3 | Tumour size expressed in volume ([9]; 5 mg/kg, Week 1): 30.47 mm^3 | Tumour size expressed in volume ([9]; 5 mg/kg, Week 2): 39.17 mm^3 | Tumour size expressed in volume ([9]; 5 mg/kg, Week 3): 43.73 mm^3 | Tumour size expressed in volume ([9]; 5 mg/kg, Week 4): 66.83 mm^3 | Tumour weight at necropsy ([9]; 10 mg): 0.0913 g | Tumour size expressed in volume ([9]; 10 mg/kg, Week 0): 46.33 mm^3 | Tumour size expressed in volume ([9]; 10 mg/kg, Week 1): 52.86 mm^3 | Tumour size expressed in volume ([9]; 10 mg/kg, Week 2): 71.23 mm^3 | Tumour size expressed in volume ([9]; 10 mg/kg, Week 3): 73.39 mm^3 | Tumour size expressed in volume ([9]; 10 mg/kg, Week 4): 154.29 mm^3 | reduction in tumour growth ([9]; 1 and 10 mg/kg, early exponential tumour growth in these groups): No reduction in tumour growth
